Tested on: humans having risk factors for atherosclerosis
Assay: Example 4: double-blinded, randomized comparative study of treating elevated cholesterol levels
Assay type: in vivo, human
Settings: at eight weeks, versus baseline
Procedure: A comparative study is executed to determine the effects of methods of treating elevated cholesterol levels comprising administration of each of: Test Sample 1, simvastatin (20 mg) in conjunction with fruit juice; Test Sample 2, simvastatin (10 mg) in conjunction with fruit juice; and Test Sample 3, simvastatin (10 mg) in conjunction with psyllium (15 grams) and fruit juice.
The study is a double-blinded, randomized comparison. Sixty humans, aging from about 30 to about 80 years, are utilized for the study, all of which are determined as having risk factors for atherosclerosis. The humans are randomized to three treatment groups (Treatment Group 1, Treatment Group 2, and Treatment Group 3). Each human stops any lipid-lowering treatment, and baseline lipid levels are obtained.
Treatment Group 1 receives Test Sample 1; Treatment Group 2 receives Test Sample 2; and Treatment Group 3 receives Test Sample 3; all over an eight week period. Test Sample 1 is administered as a concurrent administration once daily. Test Sample 2 is administered as a concurrent administration once daily. For Test Sample 3, 15 grams of psyllium is divided over three daily doses, each with fruit juice, wherein the last administered dose per day is concurrently administered with the simvastatin.
At eight weeks, levels of LDL-cholesterol, total cholesterol, and triglycerides are measured. Triglycerides are found not to be influenced based upon treatment group. However, on average, LDL-cholesterol and total cholesterol is decreased by approximately 29% in Treatment Group 1, LDL-cholesterol and total cholesterol is decreased by approximately 33% in Treatment Group 2, and LDL-cholesterol and total cholesterol is decreased by approximately 38% in Treatment Group 3.

| Structure (SMILES) | LDL-cholesterol decreased, on average | total cholesterol decreased, on average |
| --- | --- | --- |
| CCC(C)(C)C(=O)O[C@H]1C[C@@H](C)C=C2C=C[C@H](C)[C@H](CC[C@@H]3C[C@@H](O)CC(=O)O3)[C@H]21 [Test Sample 2, simvastatin] | approximately 33% | approximately 33% |
| CCC(C)(C)C(=O)O[C@H]1C[C@@H](C)C=C2C=C[C@H](C)[C@H](CC[C@@H]3C[C@@H](O)CC(=O)O3)[C@H]21 [Test Sample 1, simvastatin] | approximately 29% | approximately 29% |
